The values below come from patent US7786097B2, “Tricyclic compounds, compositions and methods” (Pfizer Inc., priority 2007, dated 2010).

In general, IC50 refers to the concentration that inhibits the measured activity by half. Read a high IC50 as a need for much substance.

Data set [1] concerns Cortical bone formation rate (BFR). Briefly: Cortical bone histomorphometry, bone formation rate (BFR). It is filed as in vivo. Particulars: AUC 0-4 hr, mice. As to the method:
During the in-life portion of each study, mice received two intraperitoneal (i.p.) injections (20 mg/kg, […]) of calcein (C-0875; Sigma-Aldrich, St. Louis, Mo.) on days 1 and 26 for bone histomorphometry measurements. Calcein incorporates into the bone mineral and allows measurement of bone formation rate. Calcein was dissolved in 2% sodium bicarbonate. During the tissue harvest, the left tibiae were excised and cleaned for cortical histomorphometry measurements. After all skin and muscle were removed, tibiae were placed in 70% ethanol 4° C.) in the dark for a minimum of 24 hours.
Ground transverse sections were used for histomorphometric analysis of cortical bone. Bones were sectioned using a low-speed saw (Isomet, Buehler, Lake Bluff, Ill.) equipped with a diamond wafer blade. The end of each tibia was removed proximal to tibia-fibula synostosis and a […] cross-section was cut. Using a roughened glass plate and a cork, sections were ground to […] until transparent and all labels were distinguishable under a fluorescent microscope. Sections were dehydrated using the following solutions for a minimum of two minutes each: 1) 70% ethanol, 2) 95% ethanol, 3) 100% ethanol, 4) 50/50 ethanol/xylene, and 5) xylene (twice) (#534056; Sigma-Aldrich, St. Louis, Mo.). Sections were mounted using Eukitt Quick Mounting Medium (#03989, Sigma-Aldrich, St. Louis, Mo.) after which coverslip was applied. Using the Osteomeasure Bone Analysis Program (Osteometrics, Inc., Decatur, Ga.), bone formation rate was calculated by tracing the 1st and […] fluorescent labels and the inner and outer perimeter of the bone. Bone formation rate was calculated by the following equation: (Inter-label width/Label interval)*(Labeled perimeter/Bone perimeter). At least five samples were measured from each treatment group in each study.

The test system of data set [2] is Mouse Collagen-Induced Arthritis (mCIA). Briefly: Therapeutic mouse collagen-induced arthritis (mCIA) model. It is filed as in vivo, Male DBA/J mice. Particulars: Mus musculus; mice, dosing day 34 through day 49; read-out: Therapeutic mCIA (ED80 dose). From the text: Mouse Collagen-induced arthritis is a commonly used chronic, preclinical model of rheumatoid arthritis in which joint swelling and bone destruction occur following immunization with type II collagen. Reduction of disease incidence and severity has been shown previously to be predictive of disease-modification and signs and symptoms mitigation, respectively, in a clinical setting.
In the therapeutic mCIA model, induction of disease incidence and severity was synchronized via LPS stimulation. Male DBA/J mice were immunized with 100 ug of bovine type II collagen (bCII) on day 0. All mice received an intraperitoneal injection of 20 μg of LPS on day 28 and disease was allowed to develop through day 34. At day 34, all mice had disease (incidence=100%) with an average severity score of seven. Dosing of compounds was initiated in the therapeutic mode on day 34 and continued through day 49. Different treatments were compared by measuring the decrease in incidence (i.e., resolution of disease) and the decrease in severity of paw swelling over time.

Data set [3] can be described thus: Oral dosing in portal vein-cannulated rats, portal vein plasma. It is filed as in vivo. Particulars: oral dosing of Example 2 (30 and 200 mg/kg), four-hour time period.
The subject of data set [4] is Serum osteocalcin. Briefly: Serum osteocalcin suppression, 28-day repeat dose mouse model. It counts as in vivo, Swiss Webster female mice. As to conditions: mice. As to the method:
The compounds were weighed and suspended in a vehicle of 0.5% methylcellulose/0.025% tween 20 (Sigma-Aldrich, St. Louis, Mo.). Compound suspensions were homogenized using a Polytron PT-3100 tissue homogenizer to create a very fine suspension and were then sonicated for 10 minutes using a water bath sonicator. Aliquots of each suspension were made for daily dosing at 0.2 ml/dose. Swiss Webster female mice, 10-12 weeks old, 28-29 grams, (Taconic, Germantown, N.Y.) were used in accordance with the guidelines of the Institutional Animal Care and Use Committee and in accordance with NIH guidelines on laboratory animal welfare. Mice were acclimated in the Pfizer animal facility for three to seven days prior to being utilized in a study. […] Each treatment group contained 5-10 mice. To establish a dosing regimen for the studies, a pilot pharmacodynamic time course experiment was conducted to quantify TNFα repression after a single ED80 dose.
Body weights were measured on the first and last day of each experiment. Blood samples were obtained after three weeks of dosing for a steady-state pharmacokinetic (PK) analysis. To assess compound effects on LPS-induced TNFα, all mice received an intraperitoneal injection of LPS (Salmonella typhosa, L-7895; Sigma-Aldrich, St. Louis) 2.5 hr after the last dose on day 28. Mice were sacrificed 90 minutes after LPS administration. Serum samples were quantified for osteocalcin and TNFα using the multiplex assays (Linco Research, Inc, St. Charles, Mo.; Luminex 100, Austin, Tex.). Samples were diluted 1:20 and the assay was run according to manufacturer's instructions. The osteocalcin standard was purchased separately (Biomedical Technologies Inc., Stoughton, Mass.). Mice were fasted for 4 hours before serum was collected for TNFα, and osteocalcin levels. For each experiment, outliers were detected by calculating the number of standard deviations from the mean of the group. If the value being examined was more than 2.5 standard deviations from the mean, it was excluded from the rest of the calculations.
The individual mouse percent inhibition values were fit to a four-parameter logistic model using the dose mean for each group.
ED50 and ED80 values were obtained for the various endpoints using a four-parameter logistic fit. For compounds which were tested multiple times, ED50 and ED80 values were obtained using four-parameter logistic fits of the combined data from multiple experiments.

Data set [5] concerns house dust mite-induced BAL inflammatory cell influx. Briefly: House dust mite model of asthma, BAL inflammatory cell influx. It is filed as in vivo, Mice. As to conditions: 0.1, 1 and 10 mg/kg, p.o., b.i.d.
The target in data set [6] is T1, full-length glucocorticoid (GR) protein (Homo sapiens, UniProt P04150).
T1 construct: purchased Invitrogen
T1 sequence (P04150 1-777): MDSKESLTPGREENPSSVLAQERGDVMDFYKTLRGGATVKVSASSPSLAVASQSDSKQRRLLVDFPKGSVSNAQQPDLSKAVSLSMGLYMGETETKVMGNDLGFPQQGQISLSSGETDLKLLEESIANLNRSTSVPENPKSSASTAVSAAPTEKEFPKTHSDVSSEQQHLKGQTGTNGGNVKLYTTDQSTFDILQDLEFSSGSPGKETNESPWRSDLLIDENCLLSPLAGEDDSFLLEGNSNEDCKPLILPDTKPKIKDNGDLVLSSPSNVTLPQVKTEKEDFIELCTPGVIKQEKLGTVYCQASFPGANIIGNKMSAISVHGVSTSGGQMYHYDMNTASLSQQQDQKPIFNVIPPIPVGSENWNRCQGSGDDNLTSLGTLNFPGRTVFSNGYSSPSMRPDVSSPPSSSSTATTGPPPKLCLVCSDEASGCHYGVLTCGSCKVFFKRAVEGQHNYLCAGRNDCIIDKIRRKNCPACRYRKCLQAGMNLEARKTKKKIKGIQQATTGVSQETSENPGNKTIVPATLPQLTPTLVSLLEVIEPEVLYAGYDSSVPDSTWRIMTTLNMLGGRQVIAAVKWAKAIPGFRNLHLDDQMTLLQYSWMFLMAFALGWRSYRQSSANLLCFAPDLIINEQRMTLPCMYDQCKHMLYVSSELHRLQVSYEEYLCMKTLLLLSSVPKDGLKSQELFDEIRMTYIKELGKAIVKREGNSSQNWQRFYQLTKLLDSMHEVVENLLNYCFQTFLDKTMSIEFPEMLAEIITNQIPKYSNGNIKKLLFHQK
Briefly: Glucocorticoid receptor fluorescence polarization ligand binding (GRFP) assay. The source says:
GRFP: Glucocorticoid Receptor Binding
The glucocorticoid receptor fluorescence polarization ligand binding (GRFP) assay is used to evaluate direct binding of testing compounds to full-length glucocorticoid (GR) protein. Reagents for this assay are purchased from Invitrogen in a test kit. A fluorescent labeled GR ligand is used as a fluorescent tracer and test compounds compete with the fluorescent tracer for GR binding. The change in polarization value in the presence of test compounds is due to binding of test compounds to (GR) and is used to determine IC50 and relative binding affinity of test compounds for GR.
(In general: In fluorescence polarisation assays a small probe gives low polarisation when free and higher when bound to something large.)

The nature of data set [7]: Solubility and intrinsic dissolution. It counts as physicochemical. As to conditions: compared with Example 1.
Data set [8] concerns IL-6 levels in Human A549 lung epithelial cells. Briefly: IL-1β-stimulated IL-6 in A549 cells. It counts as cell-based. Particulars: additional results (footnote a). Here is the method:
IL-6 IC50 and % Inhibition
Human A549 lung epithelial cells (American Type Culture Collection, Rockville, Md.) were cultured in Kaighn's F-12K medium with penicillin-streptomycin (10 U/mL) and 10% heat-inactivated fetal bovine serum (all from Invitrogen, Grand Island, N.Y.). A549 cells were plated at a density of 30,000 cells/well in 96-well plates and incubated overnight at 37° C. and with 5% CO2. The cells were serum-starved by replacing the growth medium with serum-free Kaighn's F-12K medium with penicillin-streptomycin (10 U/mL) and, again, incubating overnight at 37° C. and with 5% CO2. On the third day, the medium was replaced with fresh serum-free medium and the cells were incubated with or without compound (vehicle was DMSO at 0.1% maximum concentration) for approximately 1 hour and then stimulated with 1 ng/mL recombinant human IL-1β (R&D Systems, Minneapolis, Minn.) for 20 hours at 37° C. and with 5% CO2. Cell supernatants were collected for determination of IL-6 levels using MSD (Meso Scale Discovery, Gaithersburg, Md.) 96-well Single Spot plates as per the manufacturer's instructions. Plates were read with an MSD Sector Imager 6000. […] Vehicle was used to define the 0% inhibition control. Percent inhibition for each compound concentration, relative to these controls, was calculated using Excel (Microsoft, Redmond, Wash.). […]

Each structure is given as a SMILES string. Where two headings read alike, the source gives them in different places.

Turning to `Cc1ncccc1NC(=O)c1ccc2c(c1)CC[C@@H]1C[C@@](O)(C(F)(F)F)CC[C@@]21Cc1ccccc1` [Example 1, (4βS,7R,8αR)-4β-benzyl-7-hydroxy-N-(2-methylpyridin-3-yl)-7-(trifluoromethyl)-4β,5,6,7,8,8α,9,10-octahydrophenanthrene-2-carboxamide], the “Cortical bone formation rate (BFR) EAUC50” value in data set [1] stood at 270 ng·h/mL. Further, in data set [2], the ED80 is less than 2 mg/kg. In data set [3], the “detection in portal vein plasma samples” value is given as “detection of Example 1”. For the same compound, in data set [4] (AUC 0-4 hr), the “Serum osteocalcin EAUC50” value worked out at 1300 ng·h/mL and the “Serum osteocalcin EAUC80” value was found to be 4200 ng·h/mL. Besides, the “Osteocalcin Suppression (ED80 dose)” value in data set [4] (oral gavage 28 days, serum osteocalcin) is listed as greater than 10 mg/kg. The “cell infiltration into BAL fluid” value in data set [5] is listed as “mitigated cell infiltration into BAL fluid dose-dependently”.
Take `Cc1ncccc1NC(=O)c1ccc2c(c1)CC[C@@H]1C[C@@](OP(=O)(O)O)(C(F)(F)F)CC[C@@]21Cc1ccccc1` [Example 2, (2R,4αS,10αR)-4α-benzyl-7-((2-methylpyridin-3-yl)carbamoyl)-2-(trifluoromethyl)-1,2,3,4,4α,9,10,10α-octahydrophenanthren-2-yl dihydrogen phosphate]: the IC50 stood at 79 nM in data set [6] and 42 nM in data set [6] (additional results (footnote a)). Also, the “solubility and intrinsic dissolution” value in data set [7] is “enhanced solubility and intrinsic dissolution”. Besides, the “IL-6 % Inhibition” value in data set [8] was found to be 80%.
